Results reported in ChEMBL document CHEMBL5625182, “Synthesis and antibacterial activities of baulamycin A inspired derivatives” (Eur J Med Chem, 2023).
In brackets after ≈: the same amount, converted by molar mass. Activity calls are given as the source filed them. The rule behind the calls is not given here.

What was measured:
[1] = target: T1, L-2,3-diaminopropanoate--citrate ligase (Staphylococcus aureus (strain NCTC 8325 / PS 47)) (UniProt Q2G1M9); test: Inhibition of Staphylococcus aureus SbnE at 50 uM incubated for 1 hr by malachite green staining based microplate reader analysis relative to control
T1 sequence (whole entry): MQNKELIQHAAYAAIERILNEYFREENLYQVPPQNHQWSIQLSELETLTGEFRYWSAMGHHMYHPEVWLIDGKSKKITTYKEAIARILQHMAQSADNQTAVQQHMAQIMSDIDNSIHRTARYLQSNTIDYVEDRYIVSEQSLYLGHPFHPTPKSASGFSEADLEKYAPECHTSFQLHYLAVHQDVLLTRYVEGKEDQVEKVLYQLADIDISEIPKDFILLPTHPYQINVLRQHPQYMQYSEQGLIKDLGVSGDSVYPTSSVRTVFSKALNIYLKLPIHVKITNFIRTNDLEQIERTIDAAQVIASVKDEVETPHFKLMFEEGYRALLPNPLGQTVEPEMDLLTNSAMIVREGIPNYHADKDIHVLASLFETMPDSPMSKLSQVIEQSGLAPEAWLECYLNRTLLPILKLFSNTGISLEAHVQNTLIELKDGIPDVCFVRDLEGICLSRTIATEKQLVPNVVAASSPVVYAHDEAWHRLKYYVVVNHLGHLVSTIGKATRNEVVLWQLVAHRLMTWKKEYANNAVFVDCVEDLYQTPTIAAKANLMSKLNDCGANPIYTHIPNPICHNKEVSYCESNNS

Staphylococcus aureus [2] = test: Antibacterial activity against methicillin resistant Staphylococcus aureus CCARM3167 assessed as inhibition in bacterial growth incubated for 18 hrs by microdilution method; format: functional
Staphylococcus aureus [3] = test: Antibacterial activity against […] Staphylococcus aureus ATCC25923 assessed as inhibition in bacterial growth incubated for 18 hrs by microdilution method; format: functional
[4] = target: T2, L-2,3-diaminopropanoate--citrate ligase (Staphylococcus aureus (strain NCTC 8325 / PS 47), UniProt Q2G1M9); test: Inhibition of Staphylococcus aureus SbnE incubated for 1 hr by malachite green staining based microplate reader analysis
T2 sequence (Q2G1M9 whole entry): T1 sequence (whole entry)

Cell membrane = test: Induction of membrane disruption in methicillin resistant Staphylococcus aureus CCARM3167 at MIC incubated for 30 mins PI staining based Flow cytometry
Staphylococcus aureus [5] = test: Antibacterial activity against methicillin resistance Staphylococcus aureus assessed as reduction in biofilm formation at 1/2 times MIC incubated 24 hrs by crystal violet staining based microplate reader analysis; format: functional, organism-based
Bacillus cereus = test: Antibacterial activity against Bacillus cereus ATCC27348 assessed as inhibition of bacterial growth incubated for 18 hrs by microdilution method; format: functional
[6] = Antibacterial activity against Bacillus subtilis ATCC6633 assessed as inhibition of bacterial growth incubated for 18 hrs by microdilution method; format: functional, Bacillus subtilis […]
Escherichia coli = test: Antibacterial activity against Escherichia coli MC1061 assessed as inhibition of bacterial growth incubated for 18 hrs by microdilution method; format: functional
Salmonella typhimurium = test: Antibacterial activity against Salmonella typhimurium ATCC14028 assessed as inhibition of bacterial growth incubated for 18 hrs by microdilution method; format: functional, Salmonella enterica subsp. enterica serovar Typhimurium; conditions: Salmonella enterica
Staphylococcus aureus [7] = test: Antibacterial activity against quinolone-resistant Staphylococcus aureus CCARM3505 assessed as inhibition of bacterial growth incubated for 18 hrs by microdilution method; format: functional

For CC(C)C[C@@H]([C@H](O)CCCCCCCCCCO)[C@@H](O)c1cc(O)cc(O)c1, the inhibition [1] was 19.8%, the MIC (Staphylococcus aureus [2]) was over 256 µg/mL and the MIC (Staphylococcus aureus [3]) was over 256 µg/mL.
Compound CC(C)C[C@@H]([C@H](O)CCCC[C@@H](C)C[C@H](C)C[C@@H](C)CO)[C@@H](O)c1cc(O)cc(O)c1 has an inhibition [1] of 79.4%, an MIC (Staphylococcus aureus [2]) of over 256 µg/mL and an IC50 [4] of 10.5 µM. It also gave an MIC (Staphylococcus aureus [3]) of over 256 µg/mL.
CC(C)C[C@H]([C@H](O)CCNc1ccc(Cl)cc1Cl)[C@@H](O)c1cc(O)cc(O)c1 showed an inhibition [1] of 41.8%, an MIC (Staphylococcus aureus [2]) of 4 µg/mL (≈ 9.34 µM) and an MIC (Staphylococcus aureus [3]) of 8 µg/mL (≈ 18.7 µM).
Work on CC(C)C[C@@H]([C@@H](O)C[C@H](O)CC[C@@H](C)C[C@H](C)C[C@@H](C)CO)[C@@H](O)c1cc(O)cc(O)c1 yielded an inhibition [1] of 59.1%, an MIC (Staphylococcus aureus [2]) of over 256 µg/mL and an IC50 [4] of 28.5 µM. For the same compound, the MIC (Staphylococcus aureus [3]) was over 256 µg/mL.
CC(C)C[C@H]([C@H](O)CCO)[C@@H](O)c1cc(O)cc(O)c1 gave an inhibition [1] of 28.3%, an MIC (Staphylococcus aureus [2]) of over 256 µg/mL and an MIC (Staphylococcus aureus [3]) of over 256 µg/mL.
In the case of CC(C)C[C@H]([C@H](O)C[C@H](O)C#C[C@@H](C)C[C@@H](C)C[C@@H](C)COCc1ccccc1)[C@@H](O)c1cc(O)cc(O)c1, the inhibition [1] is reported as 77.5%, the Activity (Cell membrane) is reported as “Active” and the MIC (Staphylococcus aureus [2]) is reported as 4 µg/mL (≈ 7.4 µM). The IC50 [4] was 11.4 µM, the Activity (Staphylococcus aureus [5]) was “Active” and the MIC (Staphylococcus aureus [3]) was 1 µg/mL (≈ 1.85 µM).
With CC(C)C[C@H]([C@H](O)CCNc1ccccn1)[C@@H](O)c1cc(O)cc(O)c1 the inhibition [1] was 36.4%, the MIC (Staphylococcus aureus [2]) was over 256 µg/mL and the MIC (Staphylococcus aureus [3]) was over 256 µg/mL.
CC(C)C[C@@H]([C@H](O)C[C@H](O)C#CCCCCCCOCc1ccccc1)[C@@H](O)c1cc(O)cc(O)c1 gave an inhibition [1] of 97.1%, an MIC (Staphylococcus aureus [2]) of 128 µg/mL (≈ 257 µM) and an IC50 [4] of 7.16 µM. For the same compound, the MIC (Staphylococcus aureus [3]) was 128 µg/mL (≈ 257 µM).
With CCC[C@@H](O)[C@@H](CC(C)C)[C@@H](O)c1cc(O)cc(O)c1 the inhibition [1] was 25.6%, the MIC (Staphylococcus aureus [2]) was over 256 µg/mL and the MIC (Staphylococcus aureus [3]) was over 256 µg/mL.
CC(C)C[C@H]([C@H](O)CCNc1ccc(O)cc1)[C@@H](O)c1cc(O)cc(O)c1 gave an inhibition [1] of 8.18%, an MIC (Staphylococcus aureus [2]) of over 256 µg/mL and an MIC (Staphylococcus aureus [3]) of 64 µg/mL (≈ 170 µM).
Work on CC(C)C[C@H]([C@H](O)CCNc1cccc([N+](=O)[O-])c1)[C@@H](O)c1cc(O)cc(O)c1 yielded an inhibition [1] of 5.19%, an MIC (Staphylococcus aureus [2]) of 256 µg/mL (≈ 633 µM) and an MIC (Staphylococcus aureus [3]) of 64 µg/mL (≈ 158 µM).
Compound Cc1onc(-c2ccccc2)c1C(=O)N[C@@H]1C(=O)N2[C@@H]1SC(C)(C)[C@@H]2C(=O)O [OXACILLIN] has an inhibition [1] of 10.2%, an MIC (Bacillus cereus) of 32 µg/mL (≈ 79.7 µM) and an MIC (Staphylococcus aureus [2]) of over 256 µg/mL. The MIC [6] was 8 µg/mL (≈ 19.9 µM), the MIC (Escherichia coli) was 64 µg/mL (≈ 159 µM) and the MIC (Salmonella typhimurium) was 64 µg/mL (≈ 159 µM). The MIC (Staphylococcus aureus [3]) was 0.25 µg/mL (≈ 0.623 µM) and the MIC (Staphylococcus aureus [7]) was over 256 µg/mL.
In the case of CCC(=O)[C@H](C)C[C@H](C)C[C@H](C)CC[C@@H](O)C[C@@H](O)[C@@H](CC(C)C)[C@@H](O)c1cc(O)cc(O)c1, the inhibition [1] is reported as 61.2%, the MIC (Bacillus cereus) is reported as 256 µg/mL (≈ 533 µM) and the Activity (Cell membrane) is reported as “Active”. The MIC (Staphylococcus aureus [2]) was 256 µg/mL (≈ 533 µM), the IC50 [4] was 14.4 µM and the MIC [6] was over 256 µg/mL. It also gave an MIC (Escherichia coli) of 64 µg/mL (≈ 133 µM), an MIC (Salmonella typhimurium) of over 256 µg/mL and an MIC (Staphylococcus aureus [3]) of 256 µg/mL (≈ 533 µM). It also gave an MIC (Staphylococcus aureus [7]) of 64 µg/mL (≈ 133 µM).
With C=CC[C@@H](O)[C@H](CC(C)C)[C@@H](O)c1cc(O)cc(O)c1 the inhibition [1] was 39.5%, the MIC (Staphylococcus aureus [2]) was over 256 µg/mL and the MIC (Staphylococcus aureus [3]) was over 256 µg/mL.
C[C@@H](CO)C[C@H](C)C[C@H](C)C#CC(O)CC(O)C[C@@H](O)c1cc(O)cc(O)c1 (single isomer, unassigned) showed an inhibition [1] of 6.92%, an MIC (Staphylococcus aureus [2]) of 128 µg/mL (≈ 324 µM) and an MIC (Staphylococcus aureus [3]) of 128 µg/mL (≈ 324 µM).
Work on CC(C)C[C@H]([C@H](O)CCNc1ccn(C)n1)[C@@H](O)c1cc(O)cc(O)c1 yielded an inhibition [1] of 48.2%, an MIC (Staphylococcus aureus [2]) of 128 µg/mL (≈ 352 µM) and an MIC (Staphylococcus aureus [3]) of 128 µg/mL (≈ 352 µM).
In the case of C=CC[C@@H](O)[C@@H](CC(C)C)[C@@H](O)c1cc(O)cc(O)c1, the inhibition [1] is reported as 96.8%, the MIC (Staphylococcus aureus [2]) is reported as over 256 µg/mL and the IC50 [4] is reported as 8.2 µM. The MIC (Staphylococcus aureus [3]) was over 256 µg/mL.
Work on CCn1cc(C(=O)O)c(=O)c2cc(F)c(N3CCNCC3)cc21 [NORFLOXACIN] yielded an inhibition [1] of 16.8%, an MIC (Bacillus cereus) of 2 µg/mL (≈ 6.26 µM) and an MIC (Staphylococcus aureus [2]) of 4 µg/mL (≈ 12.5 µM). For the same compound, the MIC [6] was 4 µg/mL (≈ 12.5 µM), the MIC (Escherichia coli) was 2 µg/mL (≈ 6.26 µM) and the MIC (Salmonella typhimurium) was 2 µg/mL (≈ 6.26 µM). For the same compound, the MIC (Staphylococcus aureus [3]) was over 256 µg/mL and the MIC (Staphylococcus aureus [7]) was over 256 µg/mL.
For CC(C)C[C@H]([C@H](O)CCNCc1cccc([N+](=O)[O-])c1)[C@@H](O)c1cc(O)cc(O)c1, the inhibition [1] was 50.8%, the MIC (Staphylococcus aureus [2]) was over 256 µg/mL and the IC50 [4] was 92.5 µM. The MIC (Staphylococcus aureus [3]) was over 256 µg/mL.
